# Laboratory results reported in patent US8476284B2, “Inhibitors of Bruton's tyrosine kinase” (Pharmacyclics, Inc., priority 2006, dated 2013).
# Assays:
# [1] = target: Btk (Homo sapiens (Human), UniProt Q06187); test: Btk acellular kinase assay (TR-FRET)
# [2] = tested on: DHL-6 cells; test: DHL-6 cell growth (Alamar Blue assay); format: cell-based; conditions: 3E4 cells/well, complete media
# Sequence of Btk (Q06187 whole entry): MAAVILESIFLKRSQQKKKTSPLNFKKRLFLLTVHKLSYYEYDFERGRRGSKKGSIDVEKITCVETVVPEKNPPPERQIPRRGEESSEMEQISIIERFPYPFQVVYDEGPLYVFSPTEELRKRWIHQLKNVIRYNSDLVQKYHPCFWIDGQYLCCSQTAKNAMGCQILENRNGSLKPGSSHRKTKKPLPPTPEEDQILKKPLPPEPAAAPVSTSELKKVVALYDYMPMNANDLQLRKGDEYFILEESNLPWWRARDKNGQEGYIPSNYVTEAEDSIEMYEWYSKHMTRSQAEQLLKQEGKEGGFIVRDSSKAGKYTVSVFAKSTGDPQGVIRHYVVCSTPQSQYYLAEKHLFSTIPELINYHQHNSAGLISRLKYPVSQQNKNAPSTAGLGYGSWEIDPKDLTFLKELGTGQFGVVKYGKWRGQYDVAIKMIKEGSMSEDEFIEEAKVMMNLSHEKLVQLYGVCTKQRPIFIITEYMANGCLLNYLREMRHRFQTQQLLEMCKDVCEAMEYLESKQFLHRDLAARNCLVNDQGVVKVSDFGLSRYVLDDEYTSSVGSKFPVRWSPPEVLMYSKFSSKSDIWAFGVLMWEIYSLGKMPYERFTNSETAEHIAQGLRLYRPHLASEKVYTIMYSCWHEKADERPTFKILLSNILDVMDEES
Compound,fold less potent than 4 [1],growth of DHL-6 cells [2]
"C/C=C/C(=O)N1CCCC(n2nc(-c3ccc(Oc4ccccc4)cc3)c3c(N)ncnc32)C1 (centres unmarked) [Compound 5, (E)-1-(3-(4-amino-3-(4-phenoxyphenyl)-1H-pyrazolo[3,4-d]pyrimidin-1-yl)piperidin-1-yl)but-2-en-1-one]",28 fold,–
"CN(C)C/C=C/C(=O)N1CCCC(n2nc(-c3ccc(Oc4ccccc4)cc3)c3c(N)ncnc32)C1 (centres unmarked) [Compound 15, (E)-1-(3-(4-amino-3-(4-phenoxyphenyl)-1H-pyrazolo[3,4-d]pyrimidin-1-yl)piperidin-1-yl)-4-(dimethylamino)but-2-en-1-one]",–,inhibit growth
